Laboratory results taken from patent US4585773A, “Isoindolinyl-alkyl-piperazines” (Bristol-Myers Company, priority 1984, dated 1986).
Where two headings read alike, the source gives them in different places.

Columns and labels:
[1] = background statement; cited from earlier work
[2] = test system: Spontaneously Hypertensive rat; details: Suzuki et al.; cited from earlier work
[3] = diuretic properties compared to prazosin, acute (1-day) and chronic (5-day), conscious rats; format: in vivo, rat (female Sprague-Dawley); details: 3.0 mg/kg, by mouth
Protocol: In this Example the compound of Example I as the hydrochloride salt containing 3/4 mol of HCl instead of 1 mol HCl, i.e. […] Studies were conducted with conscious, 150-200 g, female Sprague-Dawley rats (Charles River Labs, Wilmington, MA) using the protocol of Hanson et al., Mineral Elect. Metab., 8: 314-324 (1982). Animals were maintained in stainless steel gang cages in temperature-controlled rooms with a 12-hour light, 12-hour dark cycle and provided Purina Rodent Lab Chow, with water ad libitum. All animals were fasted 18 hours prior to acute (first-day) dosing and water was withheld during the experiment. […] Groups of ten animals (2/cage) were studied. A controlled (non-drug) group comprised of an equal number of animals was included. Test drugs were suspended in 0.25% methocel-saline (0.9% NaCl) and administered orally by stomach intubation at the doses mentioned above. The oral fluid load volume containing the respective drug dose was uniformly maintained at 25 ml/kg; controls received in methocel-saline vehicle only. Urine was collected over a 5-hour period from rats housed in metabolism cages (2 rats per cage); one specimen consisted of the pooled sample collected from each cage. The urine volume (ml) excreted by each pair of rats was measured and electrolyte (Na, K, Cl, Ca, P) concentrations were determined with an AAII Autoanalyzer (Technicon) employing established procedures. At the end of the acute (1-day) phase, each pair of rats was returned to a separate cage (2/cage) and provided both food and water. On the following three days, each animal received its respective drug methocel-saline load via a stomach intubation. On the fifth day (after an 18-hour fast) all rats were again treated and placed in metabolism cages (2 rats/cage) for a 5-hour urine collection (chronic-effect: 5-day).

[4] = conscious rat diuretic screen of Lipschitz (Table I); format: in vivo, rat (female Sprague Dawley; male Okamoto-Aoki); details: female Sprague Dawley rats; for response vs control in vivo at 3 mg/kg / response vs control in vivo at 30 mg/kg: Rattus norvegicus, po
Protocol: With respect to diuretic utility there can be mentioned the conscious rat diuretic screen of Lipschitz, et al. (J. Pharmacol. Exp. Therap. 79, 97-110 (1943)). In this test, dose response assays of diuretic, natruiretic and kaliuretic activity are determined by oral administration of the test substance. The compounds synthesized in Examples I-XI were tested for diuretic […]. The compound of Example I was tested as its monohydrochloride 2-propanolate hydrate, i.e. as C22 […] ClN4 O4 S.HCl. 0.2(CH3)2 CHOH.0.15H2 O. Testing was carried out by the diuretic screen of Lipschitz, et al. described previously. In Table I below Volume Ratio is the ratio of total volume excreted for the test comuound compared to the total volume excreted for the control, Na^+ Ratio is the Na^+ excreted for the test compound compared to the Na^+ excreted for the control, K^+ Ratio is the K^+ excreted for the test compound compared to the K^+ excreted for the control. Female Sprague Dawley rats were used in Test Nos. 1, 2, 6, 7, 11-29. Male Okamoto-Aoki rats were used in Test Nos. 3-5 and 8-10 and testing for antihypertensive activity was carried out simultaneously on the Test Nos. 3-5 rats. In some instances, compounds were retested at the same dose level.

[5] = test system: Spontaneously Hypertensive rat; test: antihypertensive activity, Spontaneously Hypertensive Rat (Table II); format: in vivo
Protocol: Spontaneously Hypertensive Rat Male rats weighing 300-400 g, previously conditioned to the procedure, are prewarmed in a heating chamber (30° C.) for 10-20 min. and subsequently restrained in a wire holder at that temperature. Systolic blood pressure and heart rate are measured by the tailcuff technique using a pneumatic pulse transducer and a biotachometer before, and 2, 4, and 24 hours after oral administration of vehicle (0.25% Methocel in water) or test compounds suspended in vehicle at a dose volume equivalent to 5 ml/kg. Blood pressure and heart rate data are reported as changes from zero-hour measurements with vehicle control groups run periodically to confirm that the vehicle has no effect. Testing was carried out on the compounds of Examples I-XII for antihypertensive activity. In the case of all the compounds testing was carried out on the Spontaneously Hypertensive rat as described hereinbefore. In the case of the compounds of Examples I-IV testing was also carried out on the DOCA-salt Hypertensive Rat. The compound of Example I was tested as its monochloride 2-propanolate hydrate, i.e. as C22 […] ClN4 O4 S.HCl.0.2(CH3)2 CHOH.0.15H2 O in Tests 1-5; and as the 3/4 mole hydrochloride, i.e. C22 […] ClN4 O4 S: 3/4 HCl in Tests 3a, 4a, 5a-5d. Test results are set forth in Table II below wherein SHR stands for Spontaneously Hypertensive rat, DOCA stands for DOCA-salt Hypertensive Rat, ΔBP stands for the change in systolic blood pressure in mm Hg, ΔHR stands for the change in mean heart rate in beats per minute and the times set forth are the times after dosing. A peak change in ΔBP of more than 20 is considered as indicating activity.

[6] = test system: α blocking activity (phenylephrine); test: in vivo α blocking activity, phenylephrine (PE) as α-agonist (Table III); set-up: species or system rat; ED50: unit not given beside the values
Protocol: (§1) In this example the compounds of Examples I (modified), II, III, V, VI, VII, VIII, IX and XI were tested in rats for in vivo α blocking activity according to methodology described at page 312 of Deitchman, et al., Journal of Pharmacological Methods, 3, 311-321 (1980). In this test phenylephrine (PE below) or norepinephrine (NE below) was administered as an α-agonist to the rats before and after dosing with the test drug and the average interpolated dose or PE/NE effecting a 50 mm Hg increase in mean arterial blood pressure was determined. Table III below records the results. In such Table, ED50 stands for such average interpolated dose and Average Dose Shift stands for the average ratio of ED50 after drug administration to ED50 before drug administration. The compound of Example I was tested as its monochloride 2-propanolate hydrate, i.e. as C22 H27 ClN4 O4 S.HCl 0.2(CH3)2 CHOH.0.15H2 O in Tests 1-5 and as the 3/4 mole hydrochloride, i.e. C22 H27 ClN 4 O4 S.3/4HCL in Tests 2a and 3a. The route was intravenous except in the case of the runs of Test Nos. 2a, 3, 3a, 26-29 the route was oral.

[7] = test system: α blocking activity (norepinephrine); test: in vivo α blocking activity, norepinephrine (NE) as α-agonist (Table III); set-up: species or system rat; details: ED50 after/before drug
Protocol: as §1

[8] = chronic administration (5-days)

COc1cc2nc(N3CCN(C(=O)c4ccco4)CC3)nc(N)c2cc1OC [Prazosin, prazosin]
antihypertensive and diuretic activity (in words) [1]: a very active antihypertensive agent has antidiuretic activity

NS(=O)(=O)c1cc2c(cc1C(F)(F)F)NCNS2(=O)=O [hydroflumethiazide]
effects in the spontaneously hypertensive rat (in words) [2]: favorable effects

Nc1nc(N)c2nc(-c3ccccc3)c(N)nc2n1 [triamterene]
effects in the spontaneously hypertensive rat (in words) [2]: favorable effects

COc1ccccc1N1CCN(CCCN2Cc3cc(Cl)c(S(N)(=O)=O)cc3C2=O)CC1 [MJ15037-1A, 6-chloro-2,3-dihydro-2-[3-[4-(2-methoxyphenyl)-1-piperazinyl]propyl]-3-oxo-1H-isoindole-5-sulfonamide]
natriuretic/diuretic activity (in words) ([3]; acute treatment (1-day)): no natriuretic/diuretic activity
chlorouresis, increase over control [3, 8]: 31%
natriuresis, increase over control [3, 8]: 32%

NS(=O)(=O)c1cc2c(cc1Cl)CN(C1CCCCC1)C2=O [chlorexolone]
antihypertensive and diuretic activity (in words) [1]: diuretic and hypertensive activity
effects in the spontaneously hypertensive rat (in words) [2]: favorable effects

COc1ccccc1N1CCN(CCCCN2Cc3cc(Cl)c(S(N)(=O)=O)cc3C2=O)CC1 [Example XI, 6-Chloro-2,3-dihydro-2-[4-[4-(2-methoxyphenyl)-1-piperazinyl]butyl]-3-oxo-1H-isoindole-5-sulfonamide]
Urinary Na/K (Test Compound) ([4]; 3 mg/kg oral): 3.09
Urinary Na/K (Test Compound) ([4]; 30 mg/kg oral): 2.62
response vs control in vivo at 3 mg/kg ([4]; 3 mg/kg oral, read-out: K+ Ratio): 111%
response vs control in vivo at 3 mg/kg ([4]; 3 mg/kg oral, read-out: Na+ Ratio): 113%
response vs control in vivo at 3 mg/kg ([4]; 3 mg/kg oral, read-out: Volume Ratio): 108%
response vs control in vivo at 30 mg/kg ([4]; 30 mg/kg oral, read-out: K+ Ratio): 137%
response vs control in vivo at 30 mg/kg ([4]; 30 mg/kg oral, read-out: Na+ Ratio): 117%
response vs control in vivo at 30 mg/kg ([4]; 30 mg/kg oral, read-out: Volume Ratio): 94%
ΔBP 2 hours ([5]; SHR, 30 mg/kg oral): -94 ± 10 mm Hg
ΔBP 4 hours ([5]; SHR, 30 mg/kg oral): -60 ± 21 mm Hg
ΔHR 2 hours ([5]; SHR, 30 mg/kg oral): -2 ± 8 beats per minute
ΔHR 4 hours ([5]; SHR, 30 mg/kg oral): -22 ± 14 beats per minute
antihypertensive effect (in words) ([5]; conclusion from Table II (SHR, and DOCA for Examples I-IV)): good antihypertensive effect without significantly affecting heart rate
in vivo α blocking activity (in words) ([6]; conclusion from Table III): active as in vivo α blockers
ED50 ([6]; iv): 375
Average Dose Shift ([7]; dose 0.3, intravenous): 5 ± 0.5
Average Dose Shift ([7]; dose 1.0, intravenous): 27 ± 28
Average Dose Shift ([7]; dose 3, intravenous): 63 ± 19
